Measured values reported in the NIST ThermoML archive (doi:10.1016/j.jct.2015.06.036).
Numbers after ± are expanded uncertainties.

Assay: xn = mol fraction of the nth substance listed
Settings: 101 kPa, Liquid; for viscosity: Falling or rolling sphere viscometry; for speed of sound: Sing-around technique in a fixed-path interferometer; for mass density: Vibrating tube method

CCCCn1cc[n+](C)c1.F[B-](F)(F)F [1-butyl-3-methylimidazolium tetrafluoroborate] + CO
Settings	mass density [kg/m3]	speed of sound [m/s]	viscosity [mPa·s]
278.15 K, x1 = 0.0501	893 ± 0.4	1239 ± 2	1.07 ± 0.04
278.15 K, x1 = 0.0999	954.2 ± 0.3	1294 ± 2	1.7 ± 0.07
278.15 K, x1 = 0.1498	999.7 ± 0.3	1341 ± 2	2.36 ± 0.1
278.15 K, x1 = 0.2	1035.5 ± 0.2	1383 ± 2	3.35 ± 0.14
278.15 K, x1 = 0.2999	1087.2 ± 0.2	1447 ± 2	6.22 ± 0.25
278.15 K, x1 = 0.4008	1122.5 ± 0.2	1493 ± 2	11.1 ± 0.5
278.15 K, x1 = 0.4995	1147.9 ± 0.3	1527 ± 2	20.6 ± 0.8
278.15 K, x1 = 0.5999	1167.9 ± 0.3	1552 ± 2	35.3 ± 1.4
278.15 K, x1 = 0.6991	1183.3 ± 0.3	1573 ± 2	60.2 ± 2.5
278.15 K, x1 = 0.8006	1196.4 ± 0.3	1589 ± 2	108 ± 5
278.15 K, x1 = 0.8494	1201.6 ± 0.4	1596 ± 2	143 ± 7
278.15 K, x1 = 0.9006	1206.9 ± 0.4	1603 ± 2	196 ± 11
278.15 K, x1 = 0.9501	1211.4 ± 0.4	1611 ± 2	264 ± 17
278.15 K, x1 = 1	1215.9 ± 0.4	1615 ± 2	361 ± 26
288.15 K, x1 = 0.0501	884 ± 0.4	1209 ± 2	0.905 ± 0.037
288.15 K, x1 = 0.0999	945.5 ± 0.3	1266 ± 2	1.4 ± 0.06
288.15 K, x1 = 0.1498	991.2 ± 0.3	1315 ± 2	1.91 ± 0.08
288.15 K, x1 = 0.2	1027.2 ± 0.2	1356 ± 2	2.65 ± 0.11
288.15 K, x1 = 0.2999	1079.1 ± 0.2	1422 ± 2	4.73 ± 0.19
288.15 K, x1 = 0.4008	1114.6 ± 0.2	1468 ± 2	8.1 ± 0.33
288.15 K, x1 = 0.4995	1140.2 ± 0.3	1502 ± 2	14.5 ± 0.6
288.15 K, x1 = 0.5999	1160.3 ± 0.3	1527 ± 2	23.7 ± 1
288.15 K, x1 = 0.6991	1175.9 ± 0.3	1548 ± 2	38.2 ± 1.6
288.15 K, x1 = 0.8006	1189 ± 0.3	1564 ± 2	64.8 ± 2.7
288.15 K, x1 = 0.8494	1194.3 ± 0.4	1571 ± 2	82.5 ± 3.6
288.15 K, x1 = 0.9006	1199.6 ± 0.4	1578 ± 2	110 ± 5
288.15 K, x1 = 0.9501	1204 ± 0.4	1586 ± 2	143 ± 7
288.15 K, x1 = 1	1208.5 ± 0.4	1590 ± 2	186 ± 11
298.15 K, x1 = 0.0501	875 ± 0.4	1179 ± 2	0.779 ± 0.032
298.15 K, x1 = 0.0999	936.8 ± 0.3	1238 ± 2	1.18 ± 0.05
298.15 K, x1 = 0.1498	982.8 ± 0.3	1288 ± 2	1.58 ± 0.06
298.15 K, x1 = 0.2	1018.9 ± 0.2	1331 ± 2	2.16 ± 0.09
298.15 K, x1 = 0.2999	1071 ± 0.2	1397 ± 2	3.73 ± 0.15
298.15 K, x1 = 0.4008	1106.8 ± 0.2	1443 ± 2	6.18 ± 0.25
298.15 K, x1 = 0.4995	1132.5 ± 0.3	1477 ± 2	10.7 ± 0.4
298.15 K, x1 = 0.5999	1152.8 ± 0.3	1503 ± 2	16.9 ± 0.7
298.15 K, x1 = 0.6991	1168.5 ± 0.3	1524 ± 2	25.8 ± 1.1
298.15 K, x1 = 0.8006	1181.7 ± 0.3	1540 ± 2	41.5 ± 1.7
298.15 K, x1 = 0.8494	1187.1 ± 0.4	1547 ± 2	51.6 ± 2.1
298.15 K, x1 = 0.9006	1192.4 ± 0.4	1554 ± 2	66.9 ± 2.8
298.15 K, x1 = 0.9501	1196.9 ± 0.4	1562 ± 2	83.8 ± 3.7
298.15 K, x1 = 1	1201.3 ± 0.4	1565 ± 2	105 ± 5
308.15 K, x1 = 0.0501	866 ± 0.4	1150 ± 2	0.679 ± 0.028
308.15 K, x1 = 0.0999	928.1 ± 0.3	1211 ± 2	1.01 ± 0.04
308.15 K, x1 = 0.1498	974.3 ± 0.3	1262 ± 2	1.33 ± 0.05
308.15 K, x1 = 0.2	1010.6 ± 0.2	1305 ± 2	1.8 ± 0.07
308.15 K, x1 = 0.2999	1063.1 ± 0.2	1372 ± 2	3.02 ± 0.12
308.15 K, x1 = 0.4008	1099 ± 0.2	1418 ± 2	4.88 ± 0.2
308.15 K, x1 = 0.4995	1124.9 ± 0.3	1454 ± 2	8.17 ± 0.33
308.15 K, x1 = 0.5999	1145.3 ± 0.3	1479 ± 2	12.7 ± 0.5
308.15 K, x1 = 0.6991	1161.1 ± 0.3	1500 ± 2	18.5 ± 0.8
308.15 K, x1 = 0.8006	1174.5 ± 0.3	1517 ± 2	28.4 ± 1.2
308.15 K, x1 = 0.8494	1179.9 ± 0.3	1524 ± 2	34.4 ± 1.4
308.15 K, x1 = 0.9006	1185.3 ± 0.4	1531 ± 2	43.3 ± 1.8
308.15 K, x1 = 0.9501	1189.8 ± 0.4	1538 ± 2	53.3 ± 2.2
308.15 K, x1 = 1	1194.2 ± 0.4	1542 ± 2	64.8 ± 2.7
318.15 K, x1 = 0.0501	857 ± 0.4	1121 ± 2	0.6 ± 0.024
318.15 K, x1 = 0.0999	919.4 ± 0.3	1184 ± 2	0.873 ± 0.036
318.15 K, x1 = 0.1498	965.8 ± 0.3	1236 ± 2	1.14 ± 0.05
318.15 K, x1 = 0.2	1002.4 ± 0.2	1280 ± 2	1.52 ± 0.06
318.15 K, x1 = 0.2999	1055.1 ± 0.2	1348 ± 2	2.51 ± 0.1
318.15 K, x1 = 0.4008	1091.3 ± 0.2	1394 ± 2	3.96 ± 0.16
318.15 K, x1 = 0.4995	1117.4 ± 0.3	1430 ± 2	6.45 ± 0.26
318.15 K, x1 = 0.5999	1137.9 ± 0.3	1456 ± 2	9.83 ± 0.4
318.15 K, x1 = 0.6991	1153.8 ± 0.3	1477 ± 2	13.7 ± 0.6
318.15 K, x1 = 0.8006	1167.3 ± 0.3	1493 ± 2	20.4 ± 0.8
318.15 K, x1 = 0.8494	1172.7 ± 0.3	1501 ± 2	24.2 ± 1
318.15 K, x1 = 0.9006	1178.2 ± 0.4	1508 ± 2	30 ± 1.2
318.15 K, x1 = 0.9501	1182.7 ± 0.4	1515 ± 2	36 ± 1.5
318.15 K, x1 = 1	1187.2 ± 0.4	1519 ± 2	42.7 ± 1.8
